Reference: patent US8063221B2, “Aminoquinolones as GSK-3 inhibitors” (Kyorin Pharmaceutical Co., Ltd., priority 2006, dated 2011)

The compounds below were run against T1, recombinant full-length human GSK3β (Homo sapiens, UniProt P49841) (assay: Luciferase-coupled cell-free GSK3β kinase assay). Conditions: Table 1.
T1 construct: recombinant full-length human GSK3β (Upstate); purchased Upstate
Format: biochemical
Method: For compounds in Tables 1 and 2, IC50 (μM) for GSK3β enzyme in cell free assay is provided as follows:
Luciferase-Coupled Protein Kinase Assays
All coupled-luciferase assays are performed by using a brief incubation with firefly luciferase (Promega) after completion of the kinase assay. KinaseGlo Plus is used for reading kinase reactions with ATP>10 μM, KinaseGlo for ATP <10 μM. The assay volume in a 384-well plate for the kinase reaction is 30 microliters.
10-25 ng of recombinant full-length human GSK3β (Upstate) is incubated in the presence or absence of compound at varying concentrations for 1 hour at 30 degrees Celsius in 20 mM MOPS, pH 7.0, 10 mM magnesium acetate, 0.2 mM EDTA, 2 mM EGTA, 30 mM magnesium chloride, 62.5 μM phospho-glycogen synthase peptide-2, 5 μM ATP, 10 mM β-glycerol phosphate, 1 mM sodium orthovanadate and 1 mM dithiothreitol. Proceed to KinaseGlo luciferase reaction (see below).
Following the completion of the kinase reaction an equal volume of KinaseGlo or KinaseGlo Plus luciferase reagent (Promega) is added and the luminescence read using a luminescence plate reader within 5-10 minutes. Compound activity is expressed as % inhibition relative to maximal inhibition observed at the maximal dose and IC50 values then calculated using curve fitting software (GraphPad Prizm).

T1 sequence (P49841 whole entry): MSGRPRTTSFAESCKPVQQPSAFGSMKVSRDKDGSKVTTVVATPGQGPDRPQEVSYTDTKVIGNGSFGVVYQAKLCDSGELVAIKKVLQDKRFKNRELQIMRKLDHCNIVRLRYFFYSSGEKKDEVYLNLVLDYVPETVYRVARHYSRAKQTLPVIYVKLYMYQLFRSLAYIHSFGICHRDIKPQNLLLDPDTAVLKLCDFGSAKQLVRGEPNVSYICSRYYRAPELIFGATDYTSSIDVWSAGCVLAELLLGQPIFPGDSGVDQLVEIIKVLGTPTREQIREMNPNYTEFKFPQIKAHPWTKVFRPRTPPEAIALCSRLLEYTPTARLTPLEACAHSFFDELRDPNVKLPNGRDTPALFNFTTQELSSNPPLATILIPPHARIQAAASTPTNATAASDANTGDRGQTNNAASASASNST

IC50 [nM] | Structure (SMILES)
100 to 500 | Nc1c(F)c(NCCc2ccc(Cl)cc2)c(F)c2c1c(=O)c(C(=O)O)cn2C1CC1 [compound 4]
500 to 1000 | Nc1c(F)c(NCCc2ccc(Cl)cc2)c(F)c2c1c(=O)ccn2C1CC1 [compound 9]
> 1000 | CC(C)OCCCNc1c(F)c(N)c2c(=O)ccn(C3CC3)c2c1F [compound 25]
500 to 1000 | Nc1c(F)c(NCCNC(=O)c2ccccc2)c(F)c2c1c(=O)c(C(=O)O)cn2C1CC1 [compound 30]
500 to 1000 | Nc1c(F)c(NCCNC(=O)c2ccccc2)c(F)c2c1c(=O)ccn2C1CC1 [compound 33]
> 1000 | Nc1cc(NCCNc2ccccn2)cc2c1c(=O)c(C(=O)O)cn2C1CC1 [compound 36]
500 to 1000 | Nc1c(F)c(NCCNC(=O)c2ccccn2)c(F)c2c1c(=O)c(C(=O)O)cn2C1CC1 [compound 38]
100 to 500 | N#Cc1ccc(NCCNc2c(F)c(N)c3c(=O)ccn(C4CC4)c3c2F)nc1 [compound 40]
500 to 1000 | Nc1c(F)c(NCCNC(=O)c2ccncc2)c(F)c2c1c(=O)c(C(=O)O)cn2C1CC1 [compound 41]
100 to 500 | CC1COc2c(NCCCOc3ccccc3)c(F)c(N)c3c(=O)c(C(=O)O)cn1c23 (centres unmarked) [compound 88]

Continued, compound first:

Structure (SMILES) | IC50 [nM]
Nc1ccc(CCNc2c(F)c(N)c3c(=O)c(C(=O)O)cn(C4CC4)c3c2F)cc1 [compound 2] | 500 to 1000
Nc1c(F)c(NCc2ccc(Cl)cc2)c(F)c2c1c(=O)c(C(=O)O)cn2C1CC1 [compound 8] | 500 to 1000
Nc1c(F)c(NCc2ccc(Cl)cc2)c(F)c2c1c(=O)ccn2C1CC1 [compound 14] | > 1000
Nc1c(F)c(NCCc2ccc(Cl)cc2Cl)c(F)c2c1c(=O)c(C(=O)O)cn2C1CC1 [compound 18] | 500 to 1000
Nc1c(F)c(N2CCN(Cc3ccccc3)CC2)c(F)c2c1c(=O)c(C(=O)O)cn2C1CC1 [compound 22] | > 1000
Nc1c(F)c(NCCc2ccc(Cl)cc2Cl)c(F)c2c1c(=O)ccn2C1CC1 [compound 24] | > 1000
Nc1c(F)c(NCCc2ccc(-c3ccccc3)cc2)c(F)c2c1c(=O)ccn2C1CC1 [compound 27] | > 1000
Nc1c(F)c(NCCc2ccc(F)cc2F)c(F)c2c1c(=O)ccn2C1CC1 [compound 31] | > 1000
Nc1c(F)c(NCCc2ccccc2)c(F)c2c1c(=O)ccn2C1CC1 [compound 32] | 500 to 1000
Nc1c(F)c(NCCNC(=O)c2ccc(F)cc2)c(F)c2c1c(=O)c(C(=O)O)cn2C1CC1 [compound 34] | 100 to 500
Nc1c(F)c(NCCNC(=O)c2ccc(F)cc2)c(F)c2c1c(=O)ccn2C1CC1 [compound 35] | 100 to 500
N#Cc1ccc(NCCNc2c(F)c(N)c3c(=O)c(C(=O)O)cn(C4CC4)c3c2F)nc1 [compound 37] | 100 to 500
Nc1c(F)c(NCCNC(=O)c2ccc3ccccc3n2)c(F)c2c1c(=O)c(C(=O)O)cn2C1CC1 [compound 39] | 500 to 1000
Nc1c(F)c(NCCn2ccnc2)c(F)c2c1c(=O)c(C(=O)O)cn2C1CC1 [compound 42] | > 1000
Nc1c(F)c(NCCn2cncn2)c(F)c2c1c(=O)c(C(=O)O)cn2C1CC1 [compound 44] | > 1000
Nc1cc(NCCCc2ccccc2)cc2c1c(=O)c(C(=O)O)cn2C1CC1 [compound 45] | > 1000
CNNC(=O)c1cn(C2CC2)c2c(F)c(NCCCc3ccccc3)c(F)c(N)c2c1=O [compound 86] | > 1000

Same assay, conditions: Table 2

IC50 [nM] | Structure (SMILES)
> 1000 | C[C@H]1COc2c(NCCN3CCC(c4ccccc4)C3)c(F)c(N)c3c(=O)c(C(=O)O)cn1c23 (some centres unmarked) [Example 91]
< 100 | Cc1nn(C)c(C)c1CCCNc1c(F)c(N)c2c(=O)c(C(=O)O)cn3c2c1OC[C@@H]3C [Example 92]
< 100 | Cc1cc(NCCNc2c(F)c(N)c3c(=O)c(C(=O)O)cn4c3c2OC[C@@H]4C)c2ccccc2n1 [Example 94]
< 100 | CCOc1ccc(CCCNc2c(F)c(N)c3c(=O)c(C(=O)O)cn4c3c2OC[C@@H]4C)cc1OCC [Example 98]
< 100 | C[C@H]1COc2c(NCCCc3ccc(Cl)cc3)c(F)c(N)c3c(=O)c(C(=O)O)cn1c23 [Example 102]
< 100 | C[C@H]1COc2c(NCCC3CCCCC3)c(F)c(N)c3c(=O)c(C(=O)O)cn1c23 [Example 104]
< 100 | C[C@H]1COc2c(NCCSc3c[nH]c4ccccc34)c(F)c(N)c3c(=O)c(C(=O)O)cn1c23 [Example 116]
500 to 1000 | Nc1c(F)c(NCCCn2cc[n+]3ccccc23)c2c3c1c(=O)c(C(=O)O)cn3CCO2 [compound 10]
100 to 500 | CC1(C)COc2c(NCCCOc3ccccc3)c(F)c(N)c3c(=O)c(C(=O)O)cn(c23)C1 [compound 28]
< 100 | CC1(C)COc2c(NCCNc3cccc(F)n3)c(F)c(N)c3c(=O)c(C(=O)O)cn1c23 [compound 35]
100 to 500 | Nc1c(F)c(NCCCn2ccnc2)c2c3c1c(=O)c(C(=O)O)cn3CCCO2 [compound 53]
< 100 | COc1c(NCCNc2cccc3ccccc23)c(F)c(N)c2c(=O)ccn(C3CC3)c12 [compound 66]
100 to 500 | C[C@H]1COc2c(NCCCN3CCc4ccccc43)c(F)c(N)c3c(=O)c(C(=O)O)cn1c23 [compound 68]
< 100 | CC(CCc1ccc(Cl)cc1)Nc1c(F)c(N)c2c(=O)c(C(=O)O)cn3c2c1OC[C@@H]3C (some centres unmarked) [compound 71]
100 to 500 | CC(C)c1ccc(OCCNc2c(F)c(N)c3c(=O)c(C(=O)O)cn4c3c2OC[C@@H]4C)cc1 [compound 78]
< 100 | C[C@H]1COc2c(NCCCc3nc4ccccc4[nH]3)c(F)c(N)c3c(=O)c(C(=O)O)cn1c23 [compound 82]
< 100 | C[C@H]1COc2c(NCCOc3ccc(Cl)cc3)c(F)c(N)c3c(=O)c(C(=O)O)cn1c23 [compound 83]
100 to 500 | Cc1ccc(C(C)C)c(OCCNc2c(F)c(N)c3c(=O)c(C(=O)O)cn4c3c2OC[C@@H]4C)c1 [compound 85]
500 to 1000 | COc1ccc(OCC(C)Nc2c(F)c(N)c3c(=O)c(C(=O)O)cn4c3c2OC[C@@H]4C)cc1 (some centres unmarked) [compound 86]

More lines, now with the values behind:

Structure (SMILES) | IC50 [nM]
COc1ccc(OCCNc2c(F)c(N)c3c(=O)c(C(=O)O)cn4c3c2OC[C@@H]4C)cc1 [Compound 87] | 100 to 500
C[C@H]1COc2c(NCCOc3ccc(-c4ccccc4)cc3)c(F)c(N)c3c(=O)c(C(=O)O)cn1c23 [Example 96] | 500 to 1000
C[C@H]1COc2c(NCCC(c3ccccc3)c3ccc4c(c3)OCO4)c(F)c(N)c3c(=O)c(C(=O)O)cn1c23 (some centres unmarked) [Example 97] | 100 to 500
C[C@H]1COc2c(NCCOc3ccccc3)c(F)c(N)c3c(=O)c(C(=O)O)cn1c23 [Example 99] | < 100
Cc1ccc2nc(C)cc(NCCNc3c(F)c(N)c4c(=O)c(C(=O)O)cn5c4c3OC[C@@H]5C)c2c1 [Example 100] | < 100
C[C@H]1COc2c(NCCOc3ccc(C(=O)O)cc3)c(F)c(N)c3c(=O)c(C(=O)O)cn1c23 [Example 105] | < 100
C[C@H]1COc2c(NCCCc3ccccc3)c(F)c(N)c3c(=O)c(C(N)=O)cn1c23 [Example 106] | < 100
C[C@H]1COc2c(NCCCc3ccccc3)c(F)c(N)c3c(=O)c(C#N)cn1c23 [Example 108] | < 100
C[C@H]1COc2c(NCCNc3ccccn3)c(F)c(N)c3c(=O)c(C#N)cn1c23 [Example 110] | < 100
Cc1n[nH]c(SCCNc2c(F)c(N)c3c(=O)c(C(=O)O)cn4c3c2OC[C@@H]4C)n1 [Example 111] | < 100
C[C@H]1COc2c(NCCCNC(=O)c3ccccn3)c(F)c(N)c3c(=O)c(C(=O)O)cn1c23 [Example 117] | < 100
C[C@H]1COc2c(NCCCNC(=O)c3cccnc3)c(F)c(N)c3c(=O)c(C(=O)O)cn1c23 [Example 118] | < 100
CC1COc2c(NCCNc3cccc4ccccc34)c(F)c(N)c3c(=O)c(C(=O)O)cn1c23 (centres unmarked) [compound 7] | < 100
Nc1c(F)c(NCCNc2ccccn2)c2c3c1c(=O)c(C(=O)O)cn3CCCO2 [compound 11] | > 1000
C[C@H]1COc2c(NCCc3ccncc3)c(F)c(N)c3c(=O)c(C(=O)O)cn1c23 [compound 22] | 100 to 500
Nc1c(F)c(NCCCn2cnc3ccccc32)c2c3c1c(=O)c(C(=O)O)cn3CCCO2 [compound 45] | 100 to 500
Nc1c(F)c(NCCCc2ccccc2)c2c3c1c(=O)c(C(=O)O)cn3CCCO2 [compound 46] | 100 to 500
CC1COc2c(NCCCn3cnc4ccccc43)c(F)c(N)c3c(=O)ccn1c23 (centres unmarked) [compound 47] | 100 to 500
C[C@H]1COc2c(NCCN3CCc4ccccc43)c(F)c(N)c3c(=O)c(C(=O)O)cn1c23 [compound 69] | < 100
COc1ccc(CCCNc2c(F)c(N)c3c(=O)c(C(=O)O)cn4c3c2OC[C@@H]4C)cc1 [compound 73] | < 100
CC(COc1ccc(Cl)cc1)Nc1c(F)c(N)c2c(=O)c(C(=O)O)cn3c2c1OC[C@@H]3C (some centres unmarked) [compound 74] | 500 to 1000
C[C@H]1COc2c(NCCCc3ccccc3Cl)c(F)c(N)c3c(=O)c(C(=O)O)cn1c23 [compound 75] | < 100
Cc1ccc(OCCNc2c(F)c(N)c3c(=O)c(C(=O)O)cn4c3c2OC[C@@H]4C)cc1 [compound 77] | 100 to 500
COc1ccc(C(CCNc2c(F)c(N)c3c(=O)c(C(=O)O)cn4c3c2OC[C@@H]4C)c2ccc(F)cc2)cc1 (some centres unmarked) [compound 81] | < 100
Cc1cc(OCCNc2c(F)c(N)c3c(=O)c(C(=O)O)cn4c3c2OC[C@@H]4C)ccc1Cl [compound 84] | < 100
